Measurements: US20120272401A1 (priority 2009, published 2012)

Tests used:
AtABCG25 protein = molecular target: T1, AtABCG25 protein (Arabidopsis thaliana, UniProt Q84TH5, L179I); format: biochemical; details: for Promotion of ABA uptake by nucleotide (energy dependence): 4 mM of the indicated nucleotide; for Inhibition of ATP-dependent ABA uptake by nucleotide: 4 mM of the indicated nucleotide in addition to ATP
T1 construct: Full-length cDNA of the AtABCG25 (Atlg71960) gene was obtained from the RIKEN BioResource Center; made in house; host or cells: Sf9 insect cells (Spodoptera frugiperda), BaculoGold baculovirus system; membrane vesicles
Protocol: Such activity is measured using the vesicle transport assay method described in the Examples below. […] The candidate of ABA transporter protein is expressed in such cell membrane. The membrane comprises inside-out membrane vesicles in which the inside and the outside are inverted.
A BaculoGold™ baculovirus expression vector system (BD PharMingen) was used to prepare the recombinant baculovirus. Sf9 insect cells (Spodoptera frugiperda) were infected with the virus and cultured in SF900-SFM medium (Invitrogen) at 27° C. for 72 hours in a shaking incubator. Cells were collected by centrifugation at 1,100×g for 10 minutes and then disrupted by nitrogen cavitation in 150 mM NaCl. 3 mM CaCl2, 2 mM MgCl2, 0.1 mM EGTA, and 10 mM Tris-HCl (pH 7.4). Undisrupted cells, nuclear debris, and mitochondria were pelleted by centrifugation at 2,600×g for 10 minutes. The supernatant was centrifuged at 100,000×g for 30 minutes, and the pellet was resuspended in 70 mM KCl, 7.5 mM MgCl2, and 50 mM MOPS-Tris (pH 7.0). Membrane vesicles were stored by freezing in a deep freezer until use. Concentration of the protein was measured using the BCA protein assay kit (Pierce) with bovine serum albumin as a control. To confirm the production of the AtABCG25 proteins in the Sf9 cells by Western blot analysis, an anti-AtABCG25 antibody was obtained by immunizing a rabbit with a synthetic peptide (Operon Biotechnologies). This synthetic peptide consisted of 3 types of 12 to 14 amino acid residues from the Arabidopsis AtABCG25 protein, designed based on positions 69 to 82 ([…]), positions 132 to 143 ([…]), and positions 328 to 340 ([…]). Membrane proteins were solubilized using 4% SDS and subjected to 10% SDS-PAGE. Proteins were transferred to a polyvinylidene difluoride membrane and probed using a rabbit anti-AtABCG25 antibody and horseradish-peroxidase-conjugated donkey anti-rabbit IgG. Specific immunoreactive proteins were detected by exposure to an autoradiography film using a chemiluminescence detection system (ECL-plus, Amersham Biosciences).
An experiment of membrane transport was carried out using the rapid filtration technique (Otsuka, M. et al., 2005, Proc. Natl. Acad. Sci., U.S.A., 102: 17923-17928). […] The transport medium was passed through a 0.45-μm nitrocellulose filter (Millipore), and the filter was washed with 6 ml of ice-cooled stop buffer (70 mM KCl, 7.5 mM MgCl2, 50 mM MOPS-Tris, pH 7.0). The radioactivity retained on the filter was determined using a liquid scintillation counter (Tri-Carb2800TRs; PerkinElmer). Membrane vesicles from Sf9 cells containing only the vector were used as the controls.

[1] = system: AtABCG25 promoter (pAtABCG25::GUS reporter); test: GUS staining of pAtABCG25::GUS transgenic plants after ABA treatment; format: in vivo, Arabidopsis; details: 10 μM ABA
Protocol: RNA was extracted from Arabidopsis plants for RT-PCR using the RNeasy Plant Mini Kit (Qiagen). RT-PCR was carried out using AtABCG25_RT-PCR—5′ (5′-[…]-3′ (SEQ ID NO: 8)) and AtABCG25_RT-PCR—3′ (5′-[…]-3′ (SEQ ID NO: 9)) primers with the PrimeScript One Step RT-PCR kit (Takara Bio). The Actin2 transcript as a control was amplified using Actin2RT-F (5′-[…]-3′ (SEQ ID NO: 10)) and Actin2RT-R (5″-[…]-3′ (SEQ ID NO: 11)) primers. GUS staining was carried out according to the standard protocol (Sundaresan, V. et al., 1995, Genes Dev9: 1797-1810). The plants stained with GUS were observed under a SZ61 stereoscopic microscope (Olympus), and digital images were obtained using the DS-L1 CCD digital camera (Nikon). Finer images were photographed using a BX60 upright microscope (Olympus) and a VB-7010 CCD camera (Keyence). For transgenic lines to be examined for GUS expression from the AtABCG25 promoter a 2-kb AtABCG25 promoter region was prepared by amplifying the region using AtABCG25pro_Forward (5′-[…]-3′ (SEQ ID NO: 12)) and AtABCG25pro_Reverse (5′-[…]-3′ (SEQ ID NO: 13)) primers with KOD-plus polymerase (Toyobo), cloning the amplified product into the pENTR/D/TOPO vector (Invitrogen), and integrating the resultant into the GUS-fusion vector pBGGUS (Kubo, M. et al., 2005, Genes Dev 19: 1855-1860).

[2] = system: CC1=CC(=O)CC(C)(C)C1(O)/C=C/C(C)=C\C(=O)O; test: cells, lysate or membranes named; details: other: membrane vesicles expressing AtABCG25, ATP-dependent uptake measured for 15 seconds at indicated ABA concentrations; 27.0 °C

T1 sequence (Q84TH5 whole entry L179I): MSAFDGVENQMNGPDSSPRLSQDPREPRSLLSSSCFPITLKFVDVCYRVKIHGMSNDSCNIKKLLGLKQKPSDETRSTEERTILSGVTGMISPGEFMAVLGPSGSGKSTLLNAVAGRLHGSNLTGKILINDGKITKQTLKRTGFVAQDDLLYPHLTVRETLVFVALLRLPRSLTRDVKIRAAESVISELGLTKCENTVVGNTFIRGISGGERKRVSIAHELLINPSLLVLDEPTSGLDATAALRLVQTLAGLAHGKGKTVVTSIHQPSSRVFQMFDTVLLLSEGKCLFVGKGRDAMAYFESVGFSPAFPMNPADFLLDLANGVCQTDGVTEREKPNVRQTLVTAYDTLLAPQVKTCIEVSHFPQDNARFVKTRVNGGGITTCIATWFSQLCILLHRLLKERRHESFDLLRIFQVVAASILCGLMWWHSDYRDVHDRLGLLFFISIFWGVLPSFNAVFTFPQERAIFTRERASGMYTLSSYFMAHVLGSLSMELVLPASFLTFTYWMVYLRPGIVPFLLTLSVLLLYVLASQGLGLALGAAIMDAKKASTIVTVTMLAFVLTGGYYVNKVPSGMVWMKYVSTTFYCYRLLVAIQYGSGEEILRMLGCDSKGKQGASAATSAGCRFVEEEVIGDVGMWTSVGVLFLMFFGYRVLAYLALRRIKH

CC1=CC(=O)CC(C)(C)C1(O)/C=C/C(C)=C\C(=O)O (racemic) [ABA, abscisic acid]
ABA uptake in the presence of ATP, full activity (100%) (AtABCG25 protein; at 15 seconds, in the presence of ATP, no competing compound): 8.3 μmol/mg protein
Expression level of the GUS reporter after ABA treatment [1]: increased

CC1=CC(=O)CC(C)(C)C1(O)/C=C/C(C)=C\C(=O)O (single isomer, unassigned; (-)) [(−)ABA]
Cis-inhibition of ATP-dependent ABA uptake (substrate specificity) (AtABCG25 protein; in the presence of ATP and compound, (+)ABA at a 10-fold concentration): not influenced

Nc1ncnc2c1ncn2[C@@H]1O[C@H](COP(=O)(O)OP(=O)(O)O)[C@@H](O)[C@H]1O [ADP]
Promotion of ABA uptake by nucleotide (energy dependence) (AtABCG25 protein): neither ADP nor AMP promoted
Inhibition of ATP-dependent ABA uptake by nucleotide (AtABCG25 protein): inhibited

Nc1ncnc2c1ncn2[C@@H]1O[C@H](COP(=O)(O)O)[C@@H](O)[C@H]1O [AMP]
Promotion of ABA uptake by nucleotide (energy dependence) (AtABCG25 protein): neither ADP nor AMP promoted
Inhibition of ATP-dependent ABA uptake by nucleotide (AtABCG25 protein): did not exhibit any inhibitory effect

Nc1ncnc2c1ncn2[C@@H]1O[C@H](COP(=O)(O)OP(=O)(O)OP(=O)(O)O)[C@@H](O)[C@H]1O [ATP, adenosine triphosphate]
Promotion of ABA uptake by nucleotide (energy dependence) (AtABCG25 protein): significantly promoted

[O]=[V]([O-])([O-])[O-] [Vanadate]
Inhibition of ATP-dependent ABA uptake by vanadate (AtABCG25 protein; 1 mM vanadate in addition to ATP): inhibited

AtABCG25 protein (Arabidopsis thaliana; L179I)
Km [2]: 0.23 µM
Vmax [2]: 6.2 μmol/min/mg protein
